Measurements published in patent US20120315290A1, “INHIBITORS OF LL-37 MEDIATED IMMUNE REACTIVITY TO SELF NUCLEIC ACIDS” (BOARD OF REGENTS, THE UNIVERSITY OF TEXAS SYSTEM, priority 2006, published 2012).
“Also recorded” adds a separate entry of the source. Where no end group is shown, it is not given here.

Experiments:
[1] = tested on: plasmacytoid dendritic cells (pDC); assay: IFN-α and cytokine production by purified human pDC (ELISA of supernatants); format: cell-based; conditions: for pDC activation to produce IFN-α: substance alone added to purified pDC
Text: (§1) PDC from healthy donors were purified from freshly collected buffy coats. Briefly, PBMC were isolated by Ficoll-Hypaque density gradient centrifugation (GE Healthcare, Piscatway, N.J.) followed by positive sorting using anti-BDCA4-conjugated magnetic microbeads (Miltenyi Biotec, Auburn, Calif.). The recovered cells were stained with PE-Cy5-conjugated anti-CD4, APC-conjugated CD11c, and a cocktail of FITC-conjugated anti-CD3, anti-CD14, anti-CD16, anti-CD15, anti-CD20 and anti-CD56 (Lineage-FITC) (BD Pharmingen, San Diego, Calif.). The CD4+CD11c-Lin- (pDC precursors) were isolated by cell sorting. Purity was routinely >99%. PDC (5-10×10^4/well) were cultured in 96-well round-bottom plates in RPMI 1640 (GIBCO, Carlsbad, Calif.) supplemented with 10% FCS (Atlanta Biologicals, Lawrenceville, Ga.). Where indicated, pDC were stimulated with CpGA (1 μM), CpGB (1 μM), R837 (10 ug/ml), IRS (4 uM), non-CpG sequence (4 uM), and different concentrations of LL-37 and of human genomic DNA. To prepare LL-37.DNA complexes, CpGB, huDNA, non-CpG and LL-37 were mixed by inversion and incubated for 30 min at room temperature before being added to the cells.
(§2) Supernatants samples were taken after 18-24 h after addition of the stimuli. Human IFN-α was measured using a human IFN-α ELISA kit (PBL Biomedical Laboratories, New Brunswick, N.J.) according to the company's instructions. IL-6 and TNF-α were detected using a kit for human IL6 and TNF-α (R&D Systems), respectively.

pDC [2] = assay: pDC viability; format: cell-based, human; conditions: not shown
[3] = tested on: LL-37-mediated activation of pDC; assay: Inhibition of LL-37-mediated IFN-α induction in pDC; format: cell-based, human; conditions: pDC stimulated with LL-37 (10 μM) in presence of the substance
Experimental: (A) pDC were stimulated with LL-37 (10 μM) in the presence of pertussis toxin (PTX) or KN62 to block the FPRL-1 and the P2X pathway respectively. Furthermore agonistic W peptide and ATP were used to stimulate these pathways on pDC. (B) pDC were stimulated with LL-37 (10 μM) in the presence of increasing concentrations of chloroquine to block the endosomal TLR pathway. (C) PDC were pre-treated DNase I, TLR-9 inhibitor (IRS, 4 μM) or ctrl ODN sequences for 30 min and followed by incubation with LL-37 (10 μM), CpG 2216 (CpGA, 1 μM) or imiquimod (R837,10 μg/ml) for 24 h (A). The culture supernatants were analyzed for IFN-α production by ELISA. One representative experiment of three is shown.
Heparin (an anionic sugar) was preincubated for ½ h with LL-37 before stimulating pDC (thus associating with self-DNA released by dying cells in culture) or before adding genomic human DNA and subsequently stimulating pDC.
as §1, §2

proteinase 3 = target: T1, proteinase 3 (Homo sapiens, UniProt P24158); assay: Cleavage of LL-37 from propeptide hCAP18 in activated neutrophils (Western blot); format: cell-based; conditions: pretreatment of neutrophils, PMA activation
T1 construct: endogenous in cells
T1 sequence (P24158 28-248): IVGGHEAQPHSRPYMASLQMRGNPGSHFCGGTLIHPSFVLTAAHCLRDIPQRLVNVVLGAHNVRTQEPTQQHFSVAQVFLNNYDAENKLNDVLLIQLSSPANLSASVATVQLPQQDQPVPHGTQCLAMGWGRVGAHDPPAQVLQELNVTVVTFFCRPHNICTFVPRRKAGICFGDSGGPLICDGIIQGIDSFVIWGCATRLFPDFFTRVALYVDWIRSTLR

pDC [4] = assay: pDC stimulation by supernatant of activated neutrophils (type I IFN); format: cell-based, human; conditions: neutrophils pretreated with inhibitor
Text: (Left panel) IFN-α released by pDC stimulated with NET w/o Pr-3 inhibitors, CpG, w/o Pr-3 inhibitors is used as positive control.
These findings indicate that proteinase 3 inhibitors block the generation of the mature LL-37 peptide, thus inhibiting the LL-37-mediated break of innate tolerance to self-nucleic acids.

human genomic DNA = assay: Complex formation with DNA (ethidium bromide intercalation, size exclusion HPLC); format: binding
Text: (A) Emission spectra of human genomic DNA intercalated with Ethimidium bromide in the presence of increasing doses of LL-37. (B) Size exclusion HPLC of LL-37 alone, mut-LL-37 alone or DNA premixed with LL-37 or mut-37. […] Absorbance scales are different to accommodate the DNA peak.

Nc1ncnc2c1ncn2[C@@H]1O[C@H](COP(=O)(O)OP(=O)(O)OP(=O)(O)O)[C@@H](O)[C@H]1O [ATP, Adenosin triphopshate]
pDC activation to produce IFN-α [1]: did not result in IFN-α production by pDC

CCN(CC)CCCC(C)Nc1ccnc2cc(Cl)ccc12 (stereo not drawn) [Chloroquine]
Effect on pDC viability (pDC [2]): no measurable effect on pDC viability | Effect on IFN-α induction by LL-37 in pDC [3]: inhibited LL-37-mediated IFN-α induction in a dose-dependent manner

CC(C)C[C@H](NC(=O)[C@@H](NC(=O)N[C@@H](Cc1ccccc1)C(=O)O)[C@@H]1CCN=C(N)N1)C(=O)N[C@H](C=O)Cc1ccccc1 [Chymostatin]
Cleavage of the 4 kD LL-37 peptide from hCAP18 (proteinase 3): can be blocked; also recorded: block the cleavage of LL-37 from its propeptide hCAP | Capacity of activated neutrophils to stimulate pDC to produce type I IFNs (pDC [4]): abrogated; also recorded: inhibit the activation of pDC by self-DNA released by neutrophils

CN([C@@H](Cc1ccc(OS(=O)(=O)c2cccc3cnccc23)cc1)C(=O)N1CCN(c2ccccc2)CC1)S(=O)(=O)c1cccc2cnccc12 [KN62, KN-62]
Effect on IFN-α induction by LL-37 in pDC [3]: did not inhibit IFN-α induction by LL-37

DNase I
Effect on IFN-α induction by LL-37 in pDC [3]: significantly inhibited

GGGGGACGATCGTCGGGGGG [CpGA]
IFN-α induction by pDC, single stranded form complexed to LL-37 [1]: restored | IFN-α induction by pDC, single stranded form (heat and flash cooling) ([1]; multimeric complex disrupted): strongly inhibited

HBD-3: AMP cultured with pDC at equimolar doses (GIINTLQKYYCRVRGGRCAVLSCLPKEEQIGKCSTRGRKCCRRKK; ends and bridges not checked; cysteine pairing not given here; UniProt P81534 23-67, looked up)
pDC activation to produce IFN-α [1]: did not induce pDC activation to produce IFN-α

LLGDFFAVSKEKIGAEFVRIVQAIKDFLRNLVPRTES [mLL-37]
Complex formation with DNA (human genomic DNA): not able to complex with DNA | pDC activation to produce IFN-α [1]: complete abrogation of pDC activation | pDC activation to produce IFN-α ([1]; listed as mutated LL-37 peptide): did not induce IFN-α

MeOSuc-CMK
Cleavage of the 4 kD LL-37 peptide from hCAP18 (proteinase 3): can be blocked; also recorded: block the cleavage of LL-37 from its propeptide hCAP | Capacity of activated neutrophils to stimulate pDC to produce type I IFNs (pDC [4]): abrogated; also recorded: inhibit the activation of pDC by self-DNA released by neutrophils

Pertussis Toxin [PTX]
Effect on IFN-α induction by LL-37 in pDC [3]: did not inhibit IFN-α induction by LL-37

TCGTCGTTTTGTCGTTTTGTCGTT [phophodiesteric CpG-B]
IFN-α production by pDC stimulated with nucleic acid alone or combined with LL-37, as labelled [1]: unable to induce IFN-α

TCGTCGTTTTGTCGTTTTGTCGTT [phosphothiorate CpG-B]
IFN-α production by pDC stimulated with nucleic acid alone or combined with LL-37, as labelled [1]: induced significant levels of IFN-α

WKYMV-peptide [W peptide]
pDC activation to produce IFN-α [1]: did not result in IFN-α production by pDC

heparin
Effect on IFN-α induction by LL-37 in pDC [3]: completely abrogated; also recorded: inhibits the ability of LL-37 to induce IFN-α

B1: S100-7: AMP cultured with pDC at equimolar doses (protein, UniProt P31151 2-101, looked up)
Protein S100-A7: SNTQAERSIIGMIDMFHKYTRRDDKIEKPSLLTMMKENFPNFLSACDKKGTNYLADVFEKKDKNEDKKIDFSEFLSLLGDIATDYHKQSHGAAPCSGGSQ
pDC activation to produce IFN-α [1]: did not induce pDC activation to produce IFN-α
